Results as given in the kinase profiling compilation of Christmann-Franck et al. (2016).

Columns and labels:
Assay in all cases: radiometric filter-binding kinase assay
[1] = target: MAPK12 (human) (UniProt P53778)
[2] = target: EPHA4 (human) (UniProt P54764)
[3] = target: IRAK4 (human) (UniProt Q9NWZ3)
[4] = target: CSNK1D (human) (UniProt P48730)
[5] = tested on: SGK1 (human), O00141 [S422D]; settings: compound 10.0 µM
[6] = target: MAP3K7 TAB1 (human) (UniProt Q15750+O43318)
[7] = target: AURKA (human) (UniProt O14965)
[8] = target: MYLK (human) (UniProt Q15746)
[9] = target: RPS6KA3 KD1 KD2 (human) (UniProt P51812)
[10] = target: INSRR (human) (UniProt P14616)
[11] = target: PIM1 (human) (UniProt P11309)
[12] = target: MELK (human) (UniProt Q14680)
[13] = target: CDK2 CCNA2 (human) (UniProt P20248+P24941)
[14] = tested on: RPS6KB1 (human), P23443 [T412E]
RPS6KB1 (human), P23443 [T412E], sequence (P23443 whole entry T412E, looked up): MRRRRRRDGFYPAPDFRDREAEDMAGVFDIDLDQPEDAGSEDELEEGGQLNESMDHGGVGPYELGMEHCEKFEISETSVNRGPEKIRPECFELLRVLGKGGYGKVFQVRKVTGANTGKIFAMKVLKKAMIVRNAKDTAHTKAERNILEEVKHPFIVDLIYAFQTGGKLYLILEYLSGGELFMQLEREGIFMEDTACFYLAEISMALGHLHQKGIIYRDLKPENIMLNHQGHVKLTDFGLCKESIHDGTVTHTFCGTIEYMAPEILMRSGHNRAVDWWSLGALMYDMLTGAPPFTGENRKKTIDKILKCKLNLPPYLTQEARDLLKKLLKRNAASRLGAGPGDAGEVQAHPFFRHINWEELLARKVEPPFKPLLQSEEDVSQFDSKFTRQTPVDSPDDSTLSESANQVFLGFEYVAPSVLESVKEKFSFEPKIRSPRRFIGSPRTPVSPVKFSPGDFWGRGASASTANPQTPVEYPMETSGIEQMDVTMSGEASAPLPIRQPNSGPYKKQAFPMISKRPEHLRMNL

[15] = tested on: PAK2 (human), Q13177 [T402E]
PAK2 (human), Q13177 [T402E], sequence (Q13177 whole entry T402E, looked up): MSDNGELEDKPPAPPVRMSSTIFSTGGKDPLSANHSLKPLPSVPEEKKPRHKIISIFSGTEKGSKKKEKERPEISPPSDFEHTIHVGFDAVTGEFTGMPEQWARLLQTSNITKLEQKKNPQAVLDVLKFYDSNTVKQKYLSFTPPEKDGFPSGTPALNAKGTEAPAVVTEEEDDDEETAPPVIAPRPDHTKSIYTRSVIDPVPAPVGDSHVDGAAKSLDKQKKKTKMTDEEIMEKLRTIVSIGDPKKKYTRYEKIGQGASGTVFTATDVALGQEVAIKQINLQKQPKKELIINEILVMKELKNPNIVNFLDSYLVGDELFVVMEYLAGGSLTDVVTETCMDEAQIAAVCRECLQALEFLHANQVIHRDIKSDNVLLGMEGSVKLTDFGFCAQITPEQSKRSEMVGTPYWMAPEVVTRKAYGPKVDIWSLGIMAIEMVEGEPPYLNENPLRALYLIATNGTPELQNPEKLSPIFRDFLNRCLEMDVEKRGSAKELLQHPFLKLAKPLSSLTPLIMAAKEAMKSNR

[16] = target: CLK2 (human) (UniProt P49760)
[17] = target: FGFR1 (human) (UniProt P11362)
FGFR1 (human), sequence (P11362 whole entry, looked up): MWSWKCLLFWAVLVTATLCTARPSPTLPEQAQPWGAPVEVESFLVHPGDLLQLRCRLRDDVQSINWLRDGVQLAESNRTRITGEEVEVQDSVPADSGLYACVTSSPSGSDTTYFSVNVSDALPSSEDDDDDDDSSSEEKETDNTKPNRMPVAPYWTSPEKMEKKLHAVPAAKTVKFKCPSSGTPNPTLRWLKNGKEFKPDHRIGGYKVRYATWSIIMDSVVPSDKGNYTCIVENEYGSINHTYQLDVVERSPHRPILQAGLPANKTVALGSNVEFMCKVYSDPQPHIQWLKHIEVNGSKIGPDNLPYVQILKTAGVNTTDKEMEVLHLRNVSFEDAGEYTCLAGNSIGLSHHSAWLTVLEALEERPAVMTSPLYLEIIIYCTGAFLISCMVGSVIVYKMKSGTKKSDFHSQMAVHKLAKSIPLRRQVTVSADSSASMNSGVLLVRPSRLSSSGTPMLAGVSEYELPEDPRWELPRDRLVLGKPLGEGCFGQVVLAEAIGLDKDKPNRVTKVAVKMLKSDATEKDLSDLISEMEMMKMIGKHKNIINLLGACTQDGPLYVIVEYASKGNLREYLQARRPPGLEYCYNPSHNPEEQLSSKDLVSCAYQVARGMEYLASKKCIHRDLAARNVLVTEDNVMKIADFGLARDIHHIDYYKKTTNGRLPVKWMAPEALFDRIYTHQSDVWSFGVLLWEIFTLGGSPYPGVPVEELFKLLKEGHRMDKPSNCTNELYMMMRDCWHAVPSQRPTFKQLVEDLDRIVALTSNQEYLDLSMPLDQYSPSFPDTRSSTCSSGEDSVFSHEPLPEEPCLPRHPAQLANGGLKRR

[18] = target: MAPK8 (human) (UniProt P45983)
MAPK8 (human), sequence (P45983 whole entry, looked up): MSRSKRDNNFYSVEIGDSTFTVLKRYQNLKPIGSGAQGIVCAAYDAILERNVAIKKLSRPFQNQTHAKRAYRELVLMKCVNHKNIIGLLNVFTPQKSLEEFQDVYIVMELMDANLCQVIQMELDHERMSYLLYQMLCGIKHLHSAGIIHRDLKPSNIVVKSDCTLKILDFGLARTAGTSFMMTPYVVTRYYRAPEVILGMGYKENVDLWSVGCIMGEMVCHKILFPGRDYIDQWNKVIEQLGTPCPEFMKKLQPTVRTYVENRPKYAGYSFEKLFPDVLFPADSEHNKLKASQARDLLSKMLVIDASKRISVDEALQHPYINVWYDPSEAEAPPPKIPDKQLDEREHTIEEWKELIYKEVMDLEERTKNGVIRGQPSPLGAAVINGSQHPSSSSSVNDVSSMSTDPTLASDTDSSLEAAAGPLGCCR

[19] = target: MARK4 (human) (UniProt Q96L34)
[20] = target: MAPKAPK3 (human) (UniProt Q16644)
[21] = target: FLT1 (human) (UniProt P17948)
[22] = target: INSR (human) (UniProt P06213)
[23] = target: BRSK1 (human) (UniProt Q8TDC3)
[24] = target: PIM3 (human) (UniProt Q86V86)
[25] = target: TTK (human) (UniProt P33981)
[26] = target: PLK1 (human) (UniProt P53350)
[27] = target: TBK1 (human) (UniProt Q9UHD2)
[28] = target: SYK (human) (UniProt P43405)
[29] = target: MAP3K11 (human) (UniProt Q16584)
MAP3K11 (human), sequence (Q16584 whole entry, looked up): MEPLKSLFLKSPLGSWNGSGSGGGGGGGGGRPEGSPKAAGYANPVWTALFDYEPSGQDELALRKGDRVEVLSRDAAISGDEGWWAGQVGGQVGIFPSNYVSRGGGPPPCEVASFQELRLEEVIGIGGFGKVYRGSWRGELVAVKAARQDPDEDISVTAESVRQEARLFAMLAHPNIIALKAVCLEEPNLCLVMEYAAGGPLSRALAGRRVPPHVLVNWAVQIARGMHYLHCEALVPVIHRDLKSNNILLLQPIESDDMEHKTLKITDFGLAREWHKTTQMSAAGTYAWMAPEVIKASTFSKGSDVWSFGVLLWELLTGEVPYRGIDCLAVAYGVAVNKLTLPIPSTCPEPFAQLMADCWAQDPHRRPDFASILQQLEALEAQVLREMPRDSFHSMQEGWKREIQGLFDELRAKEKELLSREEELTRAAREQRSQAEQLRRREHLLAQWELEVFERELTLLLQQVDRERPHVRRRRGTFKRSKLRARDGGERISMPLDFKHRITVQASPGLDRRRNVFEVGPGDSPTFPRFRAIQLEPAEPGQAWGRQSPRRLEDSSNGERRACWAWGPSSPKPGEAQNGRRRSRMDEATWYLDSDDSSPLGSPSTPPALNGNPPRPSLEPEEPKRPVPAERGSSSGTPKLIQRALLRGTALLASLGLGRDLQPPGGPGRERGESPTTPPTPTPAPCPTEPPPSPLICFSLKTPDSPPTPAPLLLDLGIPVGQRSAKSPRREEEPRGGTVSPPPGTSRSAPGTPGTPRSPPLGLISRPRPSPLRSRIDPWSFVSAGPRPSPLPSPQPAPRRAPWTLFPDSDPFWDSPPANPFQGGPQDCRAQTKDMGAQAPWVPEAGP

[30] = target: BRSK2 (human) (UniProt Q8IWQ3)
BRSK2 (human), sequence (Q8IWQ3 whole entry, looked up): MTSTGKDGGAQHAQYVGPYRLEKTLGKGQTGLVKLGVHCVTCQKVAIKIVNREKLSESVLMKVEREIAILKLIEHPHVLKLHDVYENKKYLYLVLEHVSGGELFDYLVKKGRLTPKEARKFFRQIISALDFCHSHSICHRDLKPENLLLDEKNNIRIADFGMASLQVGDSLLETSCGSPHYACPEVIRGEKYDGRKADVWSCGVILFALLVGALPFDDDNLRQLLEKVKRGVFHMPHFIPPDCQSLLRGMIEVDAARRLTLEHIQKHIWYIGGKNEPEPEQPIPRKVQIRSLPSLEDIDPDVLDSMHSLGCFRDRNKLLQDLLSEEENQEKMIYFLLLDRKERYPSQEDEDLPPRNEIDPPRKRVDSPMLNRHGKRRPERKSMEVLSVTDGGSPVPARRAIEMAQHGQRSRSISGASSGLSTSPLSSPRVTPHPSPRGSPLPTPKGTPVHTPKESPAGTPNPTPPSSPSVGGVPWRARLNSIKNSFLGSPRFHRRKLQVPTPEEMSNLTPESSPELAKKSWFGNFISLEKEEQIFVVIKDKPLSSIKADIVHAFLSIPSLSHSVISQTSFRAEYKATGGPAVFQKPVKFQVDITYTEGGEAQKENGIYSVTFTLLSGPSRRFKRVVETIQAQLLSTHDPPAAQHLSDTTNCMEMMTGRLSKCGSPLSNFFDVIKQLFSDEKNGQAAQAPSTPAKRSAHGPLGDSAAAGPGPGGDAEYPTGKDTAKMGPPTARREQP

[31] = target: JAK2 JH1 JH2 (human) (UniProt O60674)
[32] = target: MAP2K2 (human) (UniProt P36507)
[33] = target: RIPK2 (human) (UniProt O43353)
[34] = target: EPHB2 (human) (UniProt P29323)
[35] = target: CSK (human) (UniProt P41240)

EPHA4 (human), sequence (P54764 whole entry, looked up): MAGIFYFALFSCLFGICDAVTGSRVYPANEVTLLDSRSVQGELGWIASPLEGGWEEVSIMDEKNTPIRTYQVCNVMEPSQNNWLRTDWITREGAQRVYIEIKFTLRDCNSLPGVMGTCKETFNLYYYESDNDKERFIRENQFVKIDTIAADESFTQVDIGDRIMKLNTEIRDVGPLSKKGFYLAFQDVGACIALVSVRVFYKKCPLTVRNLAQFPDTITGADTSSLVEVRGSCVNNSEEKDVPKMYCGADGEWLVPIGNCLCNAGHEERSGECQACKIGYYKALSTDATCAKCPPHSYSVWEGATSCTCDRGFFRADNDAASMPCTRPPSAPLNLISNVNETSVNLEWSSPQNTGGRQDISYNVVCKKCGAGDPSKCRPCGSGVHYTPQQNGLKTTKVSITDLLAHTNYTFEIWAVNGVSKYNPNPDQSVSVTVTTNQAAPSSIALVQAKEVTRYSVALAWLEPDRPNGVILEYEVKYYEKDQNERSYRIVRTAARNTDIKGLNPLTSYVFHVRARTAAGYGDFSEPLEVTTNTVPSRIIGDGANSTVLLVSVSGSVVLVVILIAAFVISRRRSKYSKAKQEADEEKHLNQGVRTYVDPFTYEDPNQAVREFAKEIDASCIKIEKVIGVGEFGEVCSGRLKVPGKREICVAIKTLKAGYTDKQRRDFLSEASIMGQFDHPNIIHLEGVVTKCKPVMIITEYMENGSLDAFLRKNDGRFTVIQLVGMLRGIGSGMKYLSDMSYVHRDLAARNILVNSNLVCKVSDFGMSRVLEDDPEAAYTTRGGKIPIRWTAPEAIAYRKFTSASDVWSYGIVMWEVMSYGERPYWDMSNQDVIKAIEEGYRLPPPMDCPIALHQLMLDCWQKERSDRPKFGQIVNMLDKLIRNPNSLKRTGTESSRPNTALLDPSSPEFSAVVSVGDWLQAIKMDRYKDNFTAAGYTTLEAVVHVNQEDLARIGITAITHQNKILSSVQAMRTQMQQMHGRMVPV

CCOC(=O)c1ccc(N2NC(=O)/C(=C/c3ccc([N+](=O)[O-])o3)C2=O)cc1
residual activity ([1]; compound 10.0 µM): 112%
residual activity ([2]; compound 10.0 µM): 75%
residual activity ([3]; compound 10.0 µM): 112%
residual activity ([4]; compound 10.0 µM): 112%
residual activity [5]: 126%
residual activity ([6]; compound 10.0 µM): 102%
residual activity ([7]; compound 10.0 µM): 76%
residual activity ([8]; compound 10.0 µM): 109%
residual activity ([9]; compound 10.0 µM): 37%
residual activity ([10]; compound 10.0 µM): 106%
residual activity ([11]; compound 10.0 µM): 109%
residual activity ([12]; compound 10.0 µM): 82%
residual activity ([13]; compound 10.0 µM): 110%
residual activity ([14]; compound 10.0 µM): 120%
residual activity ([15]; compound 10.0 µM): 91%
residual activity ([16]; compound 10.0 µM): 126%
residual activity ([17]; compound 10.0 µM): 69%
residual activity ([18]; compound 10.0 µM): 117%
residual activity ([19]; compound 10.0 µM): 52%
residual activity ([20]; compound 10.0 µM): 41%
residual activity ([21]; compound 10.0 µM): 47%
residual activity ([22]; compound 10.0 µM): 99%
residual activity ([23]; compound 10.0 µM): 86%
residual activity ([24]; compound 10.0 µM): 92%
residual activity ([25]; compound 10.0 µM): 90%
residual activity ([26]; compound 10.0 µM): 92%
residual activity ([27]; compound 10.0 µM): 100%
residual activity ([28]; compound 10.0 µM): 92%
residual activity ([29]; compound 10.0 µM): 100%
residual activity ([30]; compound 10.0 µM): 42%
residual activity ([31]; compound 10.0 µM): 17%
residual activity ([32]; compound 10.0 µM): 9%
residual activity ([33]; compound 10.0 µM): 134%
residual activity ([34]; compound 10.0 µM): 81%

Cc1cc(NC(=O)c2cccc(NC(=O)/C=C/CN(C)C)c2)ccc1Nc1nccc(-c2cccnc2)n1
residual activity ([1]; compound 0.1 µM): 99%
residual activity ([1]; compound 1.0 µM): 95%
residual activity ([2]; compound 0.1 µM): 87%
residual activity ([2]; compound 1.0 µM): 80%
residual activity ([3]; compound 1.0 µM): 86%
residual activity ([4]; compound 0.1 µM): 89%
residual activity ([4]; compound 1.0 µM): 57%
residual activity ([6]; compound 0.1 µM): 90%
residual activity ([6]; compound 1.0 µM): 66%
residual activity ([7]; compound 0.1 µM): 97%
residual activity ([7]; compound 1.0 µM): 91%
residual activity ([8]; compound 0.1 µM): 97%
residual activity ([8]; compound 1.0 µM): 96%
residual activity ([9]; compound 0.1 µM): 82%
residual activity ([9]; compound 1.0 µM): 76%
residual activity ([10]; compound 0.1 µM): 93%
residual activity ([11]; compound 0.1 µM): 104%
residual activity ([11]; compound 1.0 µM): 89%
residual activity ([12]; compound 0.1 µM): 91%
residual activity ([12]; compound 1.0 µM): 63%
residual activity ([13]; compound 0.1 µM): 107%
residual activity ([13]; compound 1.0 µM): 92%
residual activity ([14]; compound 0.1 µM): 98%
residual activity ([14]; compound 1.0 µM): 93%
residual activity ([15]; compound 0.1 µM): 99%
residual activity ([15]; compound 1.0 µM): 90%
residual activity ([16]; compound 0.1 µM): 102%
residual activity ([16]; compound 1.0 µM): 88%
residual activity ([17]; compound 0.1 µM): 103%
residual activity ([17]; compound 1.0 µM): 82%
residual activity ([18]; compound 0.1 µM): 13%
residual activity ([18]; compound 1.0 µM): 6%
residual activity ([19]; compound 0.1 µM): 101%
residual activity ([19]; compound 1.0 µM): 84%
residual activity ([20]; compound 1.0 µM): 90%
residual activity ([21]; compound 0.1 µM): 100%
residual activity ([21]; compound 1.0 µM): 53%
residual activity ([22]; compound 0.1 µM): 102%
residual activity ([22]; compound 1.0 µM): 80%
residual activity ([23]; compound 0.1 µM): 99%
residual activity ([23]; compound 1.0 µM): 87%
residual activity ([24]; compound 1.0 µM): 83%
residual activity ([25]; compound 0.1 µM): 85%
residual activity ([25]; compound 1.0 µM): 65%
residual activity ([26]; compound 0.1 µM): 98%
residual activity ([26]; compound 1.0 µM): 94%
residual activity ([27]; compound 1.0 µM): 106%
residual activity ([28]; compound 0.1 µM): 103%
residual activity ([28]; compound 1.0 µM): 88%
residual activity ([29]; compound 0.1 µM): 95%
residual activity ([29]; compound 1.0 µM): 94%
residual activity ([30]; compound 0.1 µM): 87%
residual activity ([30]; compound 1.0 µM): 77%
residual activity ([31]; compound 0.1 µM): 100%
residual activity ([31]; compound 1.0 µM): 94%
residual activity ([32]; compound 0.1 µM): 98%
residual activity ([32]; compound 1.0 µM): 92%
residual activity ([33]; compound 0.1 µM): 82%
residual activity ([33]; compound 1.0 µM): 49%
residual activity ([35]; compound 0.1 µM): 110%
residual activity ([35]; compound 1.0 µM): 93%
residual activity ([34]; compound 0.1 µM): 101%
residual activity ([34]; compound 1.0 µM): 97%
